Structures can show the parent of a compound that is named as a salt.
biological target: T1, Farnesyltransferase (FTase) (Bos taurus, UniProt P29702+P49355); assay: Farnesyltransferase inhibition (scintillation proximity assay, [3H]-FPP / biotin-K-ras peptide); type: biochemical, bovine; details: compound at 10^−6 M; bovine FTase, 37° C., 30 minutes
T1 construct: precipitation from a beef brain homogenate; from tissue; host or cells: bovine brain
Method in brief: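 Read-out: [3H]-FPP prenylation of a biotinylated K-ras peptide by SPA, measured 1 h after quenching. Enzyme: FTase purified from bovine brain (ammonium sulfate cut, DEAE Sepharose), free of GGTase I and II. Test compounds in ethanol, diluted 10-fold into the reaction.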

T1 sequence (P49355 whole entry, one chain of several): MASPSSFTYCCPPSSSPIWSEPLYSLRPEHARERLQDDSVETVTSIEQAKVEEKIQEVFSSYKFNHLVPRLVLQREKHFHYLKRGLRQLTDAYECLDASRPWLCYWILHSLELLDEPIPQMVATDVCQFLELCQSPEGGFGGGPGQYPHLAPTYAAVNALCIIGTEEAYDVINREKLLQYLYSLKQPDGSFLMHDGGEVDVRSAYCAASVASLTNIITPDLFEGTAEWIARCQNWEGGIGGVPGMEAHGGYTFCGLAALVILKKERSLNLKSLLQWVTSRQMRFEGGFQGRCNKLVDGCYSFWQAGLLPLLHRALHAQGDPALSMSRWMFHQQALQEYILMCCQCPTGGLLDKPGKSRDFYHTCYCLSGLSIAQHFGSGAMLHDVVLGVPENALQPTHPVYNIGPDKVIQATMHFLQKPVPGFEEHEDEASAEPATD

Row | SMILES | inhibition at 1 µM [%]
1 | Cn1cncc1CN(Cc1ccc(C#N)c(-c2cccc3ccccc23)c1)C(=O)c1ccc(Cl)c(F)c1 [Example 198, 4-chloro-N-(4-cyano-3-(1-naphthyl)benzyl)-3-fluoro-N-((1-methyl-1H-imidazol-5-yl)methyl)benzamide] | 94
2 | Cn1cncc1CN(Cc1ccc(C#N)c(-c2cccc3ccccc23)c1)C(=O)c1cnc(Cl)c(Cl)c1 [Example 199, 5,6-dichloro-N-(4-cyano-3-(1-naphthyl)benzyl)-N-((1-methyl-1H-imidazol-5-yl)methyl)nicotinamide] | 89
3 | Cn1cncc1C(OCc1ccc(C#N)cc1)c1ccc(C#N)c(-c2ccccc2C=O)c1 (centres unmarked) [Example 200, 5-(((4-cyanobenzyl)oxy)(1-methyl-1H-imidazol-5-yl)methyl)-2′-formyl(1,1′-biphenyl)-2-carbonitrile hydrochloride] | 99
4 | Cn1cncc1C(OCc1ccc(C#N)cc1)c1ccc(C#N)c(-c2ccccc2C(F)(F)F)c1 (centres unmarked) [Example 201, 5-(((4-cyanobenzyl)oxy)(1-methyl-1H-imidazol-5-yl)methyl)-2′-(trifluoromethyl)(1,1′-biphenyl)-2-carbonitrile hydrochloride] | 99
5 | Cn1cncc1C(OCc1ccc(C#N)cc1)c1ccc(C#N)c(-c2ccc(Cl)cc2Cl)c1 (centres unmarked) [Example 202, 2′,4′-dichloro-5-(((4-cyanobenzyl)oxy)(1-methyl-1H-imidazol-5-yl)methyl)(1,1′-biphenyl)-2-carbonitrile hydrochloride] | 92
6 | Cn1cncc1C(OCc1ccc(C#N)cc1)c1ccc(C#N)c(-c2cc3ccccc3s2)c1 (centres unmarked) [Example 203, 2-(1-benzothien-2-yl)-4-(((4-cyanobenzyl)oxy)(1-methyl-1H-imidazol-5-yl)methyl)benzonitrile hydrochloride] | 86
7 | Cn1cncc1C(OCc1ccc(C#N)cc1)c1ccc(C#N)c(-c2ccccc2CO)c1 (centres unmarked) [Example 204, 5-(((4-cyanobenzyl)oxy)(1-methyl-1H-imidazol-5-yl)methyl)-2′-(hydroxymethyl)(1,1′-biphenyl)-2-carbonitrile] | 96
8 | Cn1cncc1C(OCc1ccc(C#N)cc1)c1ccc(C#N)c(-c2ccccc2C(=O)O)c1 (centres unmarked) [Example 205, 2′-cyano-5′-(((4-cyanobenzyl)oxy)(1-methyl-1H-imidazol-5-yl)methyl)(1,1′-biphenyl)-2-carboxylic acid] | 90
9 | Cn1cncc1CN(Cc1ccc(C#N)cc1)C(=O)c1ccc(C#N)c(-c2cccc3cccnc23)c1 [Example 206, 4-cyano-N-(4-cyanobenzyl)-N-((1-methyl-1H-imidazol-5-yl)methyl)-3-(8-quinolinyl)benzamide] | 88
10 | Cn1cncc1CN(Cc1ccc(C#N)c(-c2cccc3ccccc23)c1)Cc1cc(OC(F)(F)F)ccc1O [Example 207, 4-(((2-hydroxy-5-(trifluoromethoxy)benzyl)((1-methyl-1H-imidazol-5-yl)methyl)-amino)methyl)-2-(1-naphthyl)benzonitrile] | 91
11 | COC(=O)c1ccc(CN(Cc2ccc(C#N)c(-c3cccc4ccccc34)c2)Cc2cncn2C)nc1 [Example 208, methyl 6-(((4-cyano-3-(1-naphthyl)benzyl)((1-methyl-1H-imidazol-5-yl)methyl)-amino)-methyl)nicotinate] | 95
12 | CCOC(=O)N1CCC(N(Cc2ccc(C#N)c(-c3cccc4ccccc34)c2)Cc2cncn2C)CC1 [Example 209, ethyl 4-((4-cyano-3-(1-naphthyl)benzyl)((1-methyl-1H-imidazol-5-yl)methyl)-amino)-1-piperidinecarboxylate] | 93
13 | Cc1ccccc1-c1cc(C(Cn2ccnc2)OCc2ccccc2)ccc1C#N (centres unmarked) [Example 210, 5-(1-(benzyloxy)-2-(1H-imidazol-1-yl)ethyl)-2′-methyl(1,1′-biphenyl)-2-carbonitrile hydrochloride] | 48
14 | Cc1ccccc1-c1cc(C(O)c2cccnc2)ccc1C#N (centres unmarked) [Example 211, 5-(hydroxy(3-pyridinyl)methyl)-2′-methyl(1,1′-biphenyl)-2-carbonitrile] | 30

— patent US20020019527A1 (priority 2000, published 2002)
